How the values were obtained:
hepsin = target: T1, hepsin (Homo sapiens, UniProt P05981); test: fluorescent kinetic enzyme inhibition assay
T1 construct: gene HPN

matriptase = target: T2, matriptase (Homo sapiens, UniProt Q9Y5Y6); test: fluorescent kinetic enzyme inhibition assay; format: biochemical
T2 construct: gene ST14; recombinant catalytic domain (#3946-SEB, R&D Systems)
T2 sequence (Q9Y5Y6 615-855 limits assumed): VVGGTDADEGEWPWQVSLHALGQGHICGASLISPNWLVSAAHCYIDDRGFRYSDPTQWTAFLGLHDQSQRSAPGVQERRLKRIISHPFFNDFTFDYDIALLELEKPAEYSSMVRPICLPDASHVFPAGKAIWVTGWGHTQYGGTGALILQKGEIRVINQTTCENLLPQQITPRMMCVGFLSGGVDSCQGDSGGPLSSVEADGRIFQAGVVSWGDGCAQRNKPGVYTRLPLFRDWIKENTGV

T1 sequence (P05981 45-162 limits assumed): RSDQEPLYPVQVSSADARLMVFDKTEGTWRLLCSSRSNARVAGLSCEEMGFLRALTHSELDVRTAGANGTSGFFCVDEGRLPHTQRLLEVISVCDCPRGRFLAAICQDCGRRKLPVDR
T1 sequence (P05981 163-417 limits assumed): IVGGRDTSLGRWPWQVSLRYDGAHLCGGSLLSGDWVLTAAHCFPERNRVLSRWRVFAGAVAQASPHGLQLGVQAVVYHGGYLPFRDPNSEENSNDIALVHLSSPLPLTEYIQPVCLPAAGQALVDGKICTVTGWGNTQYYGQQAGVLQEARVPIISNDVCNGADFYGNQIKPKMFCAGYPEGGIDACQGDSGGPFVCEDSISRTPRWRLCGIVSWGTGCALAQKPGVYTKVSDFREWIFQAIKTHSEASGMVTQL

SMILES	Ki (hepsin) [nM]	Ki (matriptase) [nM]
N=C(N)NCCC[C@H](NC(=O)[C@H](CC(N)=O)NC(=O)OCC1c2ccccc2-c2ccccc21)C(=O)c1nc2ccccc2s1 [ZFH7185-3]	1.7	106
N=C(N)NCCC[C@H](NC(=O)CNC(=O)OCC1c2ccccc2-c2ccccc21)C(=O)c1nc2ccccc2s1 [ZFH7185-8]	831	0.13

Reference: PMC6320337, “Hepatocyte growth factor activator inhibitor-2 stabilizes Epcam and maintains epithelial organization in the mouse intestine” (Communications Biology, 2019)
